In PubChem BioAssay (NCI) one finds GI50 and TGI data, which are given here for 13 compounds.

Holding throughout (test): NCI-60 cell line screen, 48 h
Test [1] relates to TK-10 renal.
The test system of test [2] is LOX IMVI melanoma.
Test [3] concerns SR leukemia.
Test [4] deals with SN12C renal.
Test [5] has as its system UACC-257 melanoma.
The subject of test [6] is HCC-2998 colon.
Test [7] concerns RPMI-8226 leukemia.
The test system of test [8] is ACHN renal.
Test [9] has as its system M14 melanoma.
Test [10] concerns MALME-3M melanoma.

Each structure is given as a SMILES string.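 Test compounds were applied to cells in 96-well plates for 48 hours at 5 doses. Abbreviation: GI50, concentration required for 50% inhibition of growth. Definition used: TGI = concentration required for complete inhibition of growth.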

For the compound `COc1cc([C@@H]2c3cc4c(cc3[C@H](SC(=N)N)[C@H]3COC(=O)[C@H]23)OCO4)cc(OC)c1OC`, the GI50 in [1] is 2.48 µM; in [2], 0.0799 µM; in [3], 0.0897 µM; in test [4], 0.621 µM; in [5], 15.1 µM; in test [6], 0.338 µM. Moreover, the values for the GI50 in [7], in test [8] and in test [9] were 0.409 µM, 0.41 µM and 0.288 µM, respectively. Besides, the TGI in [1] is greater than 78.9 µM; in test [2] it was greater than 100 µM; in test [3], greater than 100 µM; in [4] it was greater than 100 µM; in test [5], greater than 100 µM; in test [6] it was greater than 100 µM. In addition, the figures for the TGI in test [7], in [8] and in [9] were 32 µM, greater than 84.2 µM and greater than 100 µM, respectively.

Take `Nc1nc(Cl)c2ncn(Cc3ccc(C45CC6CC(CC(C6)C4)C5)c(OCc4cc(F)c(F)cc4F)c3)c2n1`: the GI50 in test [1] is 2.88 µM; in test [2], 1.88 µM; in test [10], 2.47 µM; in test [4], 3.05 µM; in test [5], 0.494 µM; in [6], 2.48 µM. Also, the GI50 in test [8] was 3.4 µM. Also, the TGI in test [1] is 10.3 µM; in test [2], 8.64 µM; in test [10], 8.62 µM; in [4] it was 11.3 µM; in test [5], 3.97 µM; in [6], 5.58 µM. For the same compound, the TGI in test [8] was determined as 13.7 µM.

In the case of `O=C1C=CC2(O)OCC3C=C4O[C@@H]5OC6(CCCCC6)O[C@@H]5C4[C@@H]2[C@@H]13` (stereo partly drawn), the TGI was 48.6 µM in [1]; greater than 100 µM in test [2]; 62.1 µM in [10]; greater than 100 µM in [4]; 35 µM in [5]; greater than 100 µM in test [6]. Further, the TGI turned out to be 58.9 µM in test [7], 88.4 µM in test [8] and 43.8 µM in test [9].

In the case of `COc1cc2c(c3c1c(=O)c1ccccc1n3C)C=C([N+](=O)[O-])C(C)(C)O2`, the TGI was greater than 100 µM in test [1]; greater than 100 µM in test [2]; greater than 100 µM in [3]; greater than 100 µM in [4]; greater than 48 µM in [5]; greater than 31.6 µM in [7]. In addition, the TGI in test [8] worked out at 0.464 µM.

Take `O=C1c2cccc3c(N4CCOCC4)ccc(c23)C(=O)N1CCN1CCN(CCCCCN2CCN(CCN3C(=O)c4cccc5c(N6CCOCC6)ccc(c45)C3=O)CC2)CC1`: the GI50 in test [1] is greater than 100 µM; in [2], greater than 100 µM; in test [10], greater than 100 µM; in test [4] it was 57.4 µM; in test [5], 74 µM; in test [6], 17.5 µM. Besides, the figures for the GI50 in [7], in [8] and in test [9] were 23.2 µM, 62.2 µM and greater than 100 µM, respectively. Besides, the TGI in [1] was greater than 100 µM; in test [2] it was greater than 100 µM; in test [10] it was greater than 100 µM; in [4], greater than 100 µM; in test [5], greater than 100 µM; in [6] it was 65.5 µM. Besides, the TGI in test [7], in test [8] and in test [9] was greater than 100 µM in each case.

For `Cc1ccc(-n2nc(C(OC3OC(CO)C(O)C(O)C3O)C(O)CO)c3nc4cc(C)c(C)cc4nc32)cc1` (stereo not drawn), the TGI in [1], in test [2], in test [10], in test [4], in [5] and in test [6] was greater than 100 µM each time. Moreover, the TGI in test [7], in test [8] and in test [9] was greater than 100 µM in each case.

Turning to `CCCCCCCCCC1CC(=O)OC23CCCC(=O)C12O3` (stereo not drawn), the TGI in test [1], in [2], in test [10], in test [4], in test [5] and in test [6] was greater than 100 µM each time. In addition, the TGI in [7], in [8] and in test [9] was greater than 100 µM each time.

For the compound `O=C1C=CC2(CCC23C=CC(=O)O3)O1` (stereo not drawn), the TGI in test [1], in test [2], in [10], in test [4], in test [5] and in test [6] was greater than 100 µM in each case. In addition, the TGI in [7], in test [8] and in test [9] was greater than 100 µM throughout.

Regarding `CC(C)c1ccc(Cc2ccc(C(C)C)c(NC(=O)C(=O)Cc3cnc4ccccc4n3)c2C(C)C)c(C(C)C)c1NC(=O)C(=O)Cc1cnc2ccccc2n1`, the TGI in [1], in test [2], in [10], in [5], in test [6] and in test [7] was greater than 100 µM throughout. Also, the TGI in [8] and in test [9] was greater than 100 µM in each case.

Consider `C#Cc1cccc(NC(=O)/C=C\C(=O)O)c1`, for which the TGI in test [1], in test [10], in test [4], in [5], in [7] and in test [8] was greater than 100 µM each time.

For `N#CC(C(=O)Nc1ccccc1)C1=C(Cl)C(=O)c2ccccc2C1=O` (stereo not drawn), the TGI in test [1] stood at 36.7 µM; in test [2], 29.8 µM; in test [10], 26.7 µM; in test [4] it was 29.1 µM; in [5], 12.8 µM; in [6], 45.9 µM. Moreover, in test [9], the TGI is 30.3 µM.

As for `O=C(O)c1ccccc1NCn1nc(-c2ccccc2O)oc1=S`, the GI50 in test [1] is greater than 100 µM; in [2], 19.4 µM; in test [4] it was 56.5 µM; in [5], greater than 100 µM; in test [6], 33.7 µM; in test [7], 4.14 µM. Moreover, the GI50 is 26.9 µM in test [8] and 46.3 µM in test [9]. For the same compound, the TGI in test [1] was greater than 100 µM; in test [2], 38.9 µM; in [4] it was greater than 100 µM; in test [5], greater than 100 µM; in test [6], 86.7 µM; in test [7], 24.5 µM. In addition, the TGI was 82.8 µM in [8] and greater than 100 µM in test [9].

On to `COc1ccccc1/C=C(\NC(=O)c1ccccc1)c1nc2ccc(Cl)cc2[nH]1`, for which the TGI in [1] is 73.7 µM; in test [2] it was greater than 100 µM; in test [10], greater than 100 µM; in test [4] it was greater than 100 µM; in [5], greater than 100 µM; in test [7], 38.5 µM. The TGI in test [8] is 67.8 µM; in [9], greater than 100 µM.
